Results reported in patent US10221173B2, “Chemical compounds” (AstraZeneca AB, priority 2017, dated 2019).
≈ marks a conversion by molar mass, not a printed value.

How the values were obtained:
[1] = biological target: recombinant human Estrogen Receptor alpha ligand binding domain (ER alpha-LBD (GST)) (Homo sapiens (Human), UniProt P03372); assay: ERα binding assay (LanthaScreen TR-FRET competition)
[2] = biological target: Estrogen Receptor (ERα) in MCF-7 cells (Homo sapiens (Human), UniProt P03372); assay: MCF-7 ER down-regulation assay (immuno-fluorescence); type: cell-based
[3] = Log D (shake flask, 1-octanol/aqueous buffer); type: physicochemical
[4] = Thermodynamic solubility (shake-flask); type: physicochemical; conditions: phosphate buffer pH 7.4, 24 hours
[5] = Human plasma protein binding (equilibrium dialysis); type: in vitro ADME
[6] = 1-octanol/aqueous buffer, pH 7.4, pH 7.4
[7] = aqueous phosphate buffer, 25 °C, pH 7.4, aqueous buffer, thermodynamic from solid

Sequence of Estrogen Receptor (ERα) in MCF-7 cells (P03372 whole entry): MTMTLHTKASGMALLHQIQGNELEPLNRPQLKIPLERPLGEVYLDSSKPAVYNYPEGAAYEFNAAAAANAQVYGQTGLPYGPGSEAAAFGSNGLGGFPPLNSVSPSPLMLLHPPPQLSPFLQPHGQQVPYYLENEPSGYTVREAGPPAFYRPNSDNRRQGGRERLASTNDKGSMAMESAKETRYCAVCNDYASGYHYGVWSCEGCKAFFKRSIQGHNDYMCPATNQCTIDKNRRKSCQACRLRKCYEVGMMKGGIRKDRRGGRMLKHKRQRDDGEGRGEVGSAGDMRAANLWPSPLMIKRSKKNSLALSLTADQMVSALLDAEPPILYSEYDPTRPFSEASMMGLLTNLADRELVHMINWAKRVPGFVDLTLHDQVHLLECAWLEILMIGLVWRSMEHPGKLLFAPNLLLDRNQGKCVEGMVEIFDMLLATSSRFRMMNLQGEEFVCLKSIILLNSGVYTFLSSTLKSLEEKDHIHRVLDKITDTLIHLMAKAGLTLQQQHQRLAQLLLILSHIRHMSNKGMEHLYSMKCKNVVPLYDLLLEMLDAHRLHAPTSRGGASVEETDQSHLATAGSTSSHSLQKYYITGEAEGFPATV
Sequence of recombinant human Estrogen Receptor alpha ligand binding domain (ER alpha-LBD (GST)) (P03372 307-554): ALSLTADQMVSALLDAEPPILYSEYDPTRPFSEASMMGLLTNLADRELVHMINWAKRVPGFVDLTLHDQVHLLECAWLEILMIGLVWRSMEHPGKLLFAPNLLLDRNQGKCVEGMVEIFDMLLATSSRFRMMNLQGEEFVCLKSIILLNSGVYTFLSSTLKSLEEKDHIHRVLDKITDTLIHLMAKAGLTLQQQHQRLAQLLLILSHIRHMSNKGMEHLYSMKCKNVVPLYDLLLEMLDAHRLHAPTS

Structure (SMILES)	IC50 [1] [nM]	IC50 [2] [nM]	LogD pH 7.4 ([3]; pH 7.4)	solubility at 24 h ([4]; 25° C.) [µM]	Human plasma protein binding (% free) [5] [% free]	logD [3, 6]	solubility at 24 h [4, 7] [µM]	logD ([3]; pH 7.4)	solubility at 24 h ([4]; aqueous buffer, thermodynamic from solid, 25° C.) [µM]	% downregulation (in brackets) ([2]; maximum downregulation) [%]
CC(CN1[C@H](c2c(Cl)ccc(OCCNCCCF)c2Cl)c2[nH]c3ccc(F)cc3c2C[C@H]1C)C(=O)O (single isomer, unassigned) [Example 130]	1.8	1.3	1.5	854 (≈ 474 µg/mL)	7.8					
Cc1c([C@@H]2c3[nH]c4ccccc4c3C[C@@H](C)N2CC(F)(F)F)ccnc1OCCNCCCF [Example 106, 3-fluoro-N-(2-((3-methyl-4-((1R,3R)-3-methyl-2-(2,2,2-trifluoroethyl)-2,3,4,9-tetrahydro-1H-pyrido[3,4-b]indol-1-yl)pyridin-2-yl)oxy)ethyl)propan-1-amine]	0.92	0.095			0.34	3.9	264 (≈ 126 µg/mL)			
C[C@@H]1Cc2c([nH]c3ccccc23)[C@@H](c2ccnc(OCCNCCCF)c2Cl)N1CC(F)(F)CO [Example 104, 3-((1R,3R)-1-(3-chloro-2-(2-((3-fluoropropyl)amino)ethoxy)pyridin-4-yl)-3-methyl-1,3,4,9-tetrahydro-2H-pyrido[3,4-b]indol-2-yl)-2,2-difluoropropan-1-ol]	0.72	0.17			2.8	3	431 (≈ 220 µg/mL)			
COc1ccc(OCCNCCCF)c(F)c1[C@@H]1c2[nH]c3ccccc3c2C[C@@H](C)N1CC(F)F [Example 82, N-(2-(3-((1R,3R)-2-(2,2-difluoroethyl)-3-methyl-2,3,4,9-tetrahydro-1H-pyrido[3,4-b]indol-1-yl)-2-fluoro-4-methoxyphenoxy)ethyl)-3-fluoropropan-1-amine]	0.8	0.042			1.9			2.9	475 (≈ 234 µg/mL)	
Cc1c(OCCNCCCF)ccc(F)c1[C@@H]1c2[nH]c3ccccc3c2CC(C)(C)N1C[C@H](C)C(=O)O [Example 134, (S)-3-((R)-1-(6-fluoro-3-(2-((3-fluoropropyl)amino)ethoxy)-2-methylphenyl)-3,3-dimethyl-1,3,4,9-tetrahydro-2H-pyrido[3,4-b]indol-2-yl)-2-methylpropanoic acid]	5.8	1.6			36	0.6	> 1000			85
C[C@@H]1Cc2c([nH]c3ccc(F)cc23)[C@@H](c2c(F)cnc(OCCNCCCF)c2F)N1CC1(F)CC1 [Example 109, N-(2-((3,5-difluoro-4-((1R,3R)-6-fluoro-2-((1-fluorocyclopropyl)methyl)-3-methyl-2,3,4,9-tetrahydro-1H-pyrido[3,4-b]indol-1-yl)pyridin-2-yl)oxy)ethyl)-3-fluoropropan-1-amine]	1.2	0.41			1.9	> 3.6	176 (≈ 89.5 µg/mL)			
Cc1c(OCCNCCCF)ccc(F)c1[C@@H]1c2[nH]c3ccccc3c2C[C@@H](C)N1CCC#N [Example 87, 3-((1R,3R)-1-(6-fluoro-3-(2-((3-fluoropropyl)amino)ethoxy)-2-methylphenyl)-3-methyl-1,3,4,9-tetrahydro-2H-pyrido[3,4-b]indol-2-yl)propanenitrile]	0.54	0.065			1.6	3.1	71 (≈ 33.1 µg/mL)			
C[C@@H]1Cc2c([nH]c3ccccc23)[C@@H](c2cncc(OCCNCCCF)c2)N1CC(F)(F)F [Example 101, 3-fluoro-N-(2-((5-((1R,3R)-3-methyl-2-(2,2,2-trifluoroethyl)-2,3,4,9-tetrahydro-1H-pyrido[3,4-b]indol-1-yl)pyridin-3-yl)oxy)ethyl)propan-1-amine]	9.2	27			8.4	3.3	329 (≈ 153 µg/mL)			
